Assay results as given in article PMC6736568, “Discovery of Novel Anti-cryptosporidial Activities From Natural Products by in vitro High-Throughput Phenotypic Screening” (Frontiers in Microbiology, 2019).
Like-named read-outs stand apart in the source and are kept apart here.

Key:
[1] = tested on: HCT-8 host cells (Hs18S)
[2] = tested on: Cryptosporidium parvum; assay: qRT-PCR assay of the growth of C. parvum in vitro in HCT-8 host cells (primary and secondary screening, EC50); type: cell-based; conditions: Cryptosporidium parvum, HCT-8; primary screening at 10 uM; read-out: Inhibition (%)
[3] = in vitro; conditions: for cytotoxicity at 41 h, 10 µM: human
[4] = primary screening at 10 uM, treated vs control

Compound | Hs18S ΔCT [1, 4] | inhibition at 10 µM [2] [%] | cytotoxicity at 10 µM [3] [%] | Hs18S ΔCT ([1]; human, 41 h, 10 μM) | cytotoxicity at 41 h, 10 µM [3] [%] | Hs18S ΔCT [1]
CC1(C)[C@@H](O)CC[C@]2(C)[C@H]3C(=O)C=C4[C@H]5C[C@@](C)(C(=O)O)CC[C@]5(C)CC[C@@]4(C)[C@]3(C)CC[C@@H]12 | -0.01 | -12.7 | -0.5 |  |  | 
CCOc1cccc(C(=O)c2ccc(O)c(O)c2O)c1 |  | -37.2 |  | -0.39 | -31.4 | 
Cc1cc(O)cc(=O)o1 | 0.04 | 15.4 | 3.1 |  |  | 
CC(C)=CCC/C(C)=C/COc1ccc2ccc(=O)oc2c1 | 0.02 | 3.93 | 1.2 |  |  | 
COc1cc(OC)c2c(c1)O[C@H](c1ccc(OC)c(OC)c1)[C@@H](O)C2 | -0.47 | 17.5 | -38.4 |  |  | 
COc1ccc2c(c1)OCC(Cc1ccc(OC)c(OC)c1)C2=O (stereo not drawn) | 0.04 | 20.2 | 2.4 |  |  | 
CNc1ccccc1C(=O)O |  | -14.8 | 13 |  |  | 0.20
COc1ccc2c(c1)OC[C@@H](Cc1ccc(OC)c(OC)c1)[C@H]2O | -0.10 | 9.9 | -6.9 |  |  | 
C=CC(C)(O)CCC=C(C)CCC=C(C)C (mixture of isomers) [NEROLIDOL] |  | -35.5 |  | -0.17 | -12.9 | 
Cc1cc(O)c2c(c1O)C(=O)c1c(O)cc(C)c(O)c1C2=O [1,4,5,8-TETRAHYDROXY-2,6-DIMETHYLANTHROQUINONE] |  |  |  | 3.65 | 92 | 
CCCCCCCCCCCCCCCC(=O)OCC(O)CO (stereo not drawn) [1-MONOPALMITIN] |  | 14.2 |  | -0.10 | -7.1 | 
O=C(/C=C/c1ccccc1)c1ccc(O[C@@H]2O[C@H](CO)[C@@H](O)[C@H](O)[C@H]2O)cc1O [2',4'-DIHYDROXYCHALCONE 4'-GLUCOSIDE] |  | -19.5 |  | 0.03 | 1.9 | 
O=C(/C=C/c1ccccc1)c1ccc(O)cc1O [2',4'-DIHYDROXYCHALCONE] |  | 6.05 |  | 0.09 | 6.1 | 
COc1ccc(-c2coc3cc(O)ccc3c2=O)c(OC)c1 [2'-METHOXYFORMONETIN] |  | 12.9 |  | 0.18 | 11.5 | 
CCOc1ccc(C(=O)c2ccc(O)c(O)c2O)cc1 [2,3,4-TRIHYDROXY-4'-ETHOXYBENZOPHENONE] |  | -43.7 |  | 0.22 | 14.4 | 
CCOc1ccc(C(=O)c2ccc(OC)c(O)c2O)cc1 [2,3-DIHYDROXY-4-METHOXY-4'-ETHOXYBENZOPHENONE] |  | 39 |  | -0.12 | -8.6 | 
COc1cc(O)c(C)c(O)c1 [2,6-DIHYDROXY-4-METHOXYTOLUENE] |  | 19 |  | 0.06 | 4.4 | 
COC1=CC(=O)C=C(OC)C1=O [2,6-DIMETHOXYQUINONE] | -0.06 | -5.86 | -4.3 |  |  | 
CC(=O)c1ccc[nH]1 [2-ACETYLPYRROLE] |  | 22.6 |  | -0.43 | -34.6 | 
CC1CCC23CCC4(C)C5(C)CCC6C(C)(C)C(=O)CCC6(C)C5CCC4(OC2=O)C3C1C (stereo not drawn) [3-OXOURSAN (28-13)OLIDE] | 6.62 |  | 99 |  |  | 
CC(=O)O[C@@H]1C[C@@]2(C)[C@H](c3ccoc3)C[C@H]3O[C@]32[C@]2(C)C(=O)C(O)=C3C(C)(C)C(=O)C=C[C@]3(C)[C@@H]12 [ANTHOTHECOL] |  |  |  | 6.51 | 98.9 | 
C[C@@]12C(=O)OC(=O)[C@]1(C)[C@H]1CC[C@@H]2O1 [CANTHARIDIN] | 7.39 |  | 99.4 |  |  | 
CC1=C(O)C(=O)C=C2C1=CC=C1[C@@]2(C)CC[C@@]2(C)[C@@H]3C[C@](C)(C(=O)O)CC[C@]3(C)CC[C@]12C [CELASTROL] | 3.82 |  | 92.9 |  |  | 
C[C@@H]1O[C@@H](O[C@H]2CC[C@]3(C=O)[C@H]4CC[C@]5(C)[C@@H](C6=CC(=O)OC6)CC[C@]5(O)[C@@H]4CC[C@]3(O)C2)[C@H](O)[C@H](O)[C@H]1O [CONVALLATOXIN] | 10.84 |  | 99.9 |  |  | 
C[C@H]1O[C@@H](O[C@H]2[C@@H](O)C[C@H](O[C@H]3[C@@H](O)C[C@H](O[C@H]4CC[C@@]5(C)[C@H](CC[C@@H]6[C@@H]5CC[C@]5(C)[C@@H](C7=CC(=O)OC7)CC[C@]65O)C4)O[C@@H]3C)O[C@@H]2C)C[C@H](O)[C@@H]1O [DIGITOXIN] | 13.47 |  | 100 |  |  | 
C[C@H]1O[C@@H](O[C@H]2[C@@H](O)C[C@H](O[C@H]3[C@@H](O)C[C@H](O[C@H]4CC[C@@]5(C)[C@H](CC[C@@H]6[C@@H]5C[C@@H](O)[C@]5(C)[C@@H](C7=CC(=O)OC7)CC[C@]65O)C4)O[C@@H]3C)O[C@@H]2C)C[C@H](O)[C@@H]1O [DIGOXIN] | 14.32 |  | 100 |  |  | 
CC(C)=CCC[C@]1(C)C=Cc2c(O)c3c(c(CC=C(C)C)c2O1)O[C@]12C(=C[C@@H]4C[C@H]1C(C)(C)O[C@@]2(C/C=C(/C)C(=O)O)C4=O)C3=O [GAMBOGIC ACID] |  |  |  | 10.02 | 99.9 | 
